We go through 1 compound from publication PMC10531095, “Photonics of Some Monomethine Cyanine Dyes in Solutions and in Complexes with Biomolecules” (International Journal of Molecular Sciences, 2023).

The target in this experiment is T1, HSA (Homo sapiens, UniProt P02768).
T1 construct: purchased Sigma-Aldrich
The experiment is described as follows: FRET parameters between HSA donor fluorophores and MCD acceptors. The class given is binding. To be noted: MCD acceptor. From the text:
Quenching of intrinsic fluorescence of HSA can occur, in particular, due to energy transfer (Förster resonance energy transfer, FRET) from protein donor fluorophores to MCD acceptor molecules. In the MCD–HSA system, complexation brings acceptors and donors closer together and facilitates FRET. FRET is likely because HSA fluorescence and MCD absorption spectra overlap. For MCD and HSA, the overlap integrals J (see Equation (S7) in Supplementary Materials) were obtained in the order of 2.0–7.0 × 10^15 mol^−1 cm^−1 nm^4 (for MCD 4 see Figure S15 in Supplementary Materials). […] This is probably due to the strong aggregation of MCD 3 in the presence of HSA, which decreases the concentration of monomeric dye molecules active in fluorescence quenching (see Supplementary Materials, Figure S8). […] But as the dye concentration increases, its aggregation is built up steeply, and the fluorescence quenching diminishes.
The parameters of FRET between albumin donor chromophores (tyrosine and tryptophan amino acid residues of HSA) and acceptors (MCD 1–4 molecules) were determined from the spectral fluorescent data using the standard formulae for the spectral overlap integral J (M^−1 cm^−1 nm^4) and critical radius of energy transfer R0 (see Supplementary Material, Equations (S7) and (S8), respectively). […]

T1 sequence (P02768 25-609): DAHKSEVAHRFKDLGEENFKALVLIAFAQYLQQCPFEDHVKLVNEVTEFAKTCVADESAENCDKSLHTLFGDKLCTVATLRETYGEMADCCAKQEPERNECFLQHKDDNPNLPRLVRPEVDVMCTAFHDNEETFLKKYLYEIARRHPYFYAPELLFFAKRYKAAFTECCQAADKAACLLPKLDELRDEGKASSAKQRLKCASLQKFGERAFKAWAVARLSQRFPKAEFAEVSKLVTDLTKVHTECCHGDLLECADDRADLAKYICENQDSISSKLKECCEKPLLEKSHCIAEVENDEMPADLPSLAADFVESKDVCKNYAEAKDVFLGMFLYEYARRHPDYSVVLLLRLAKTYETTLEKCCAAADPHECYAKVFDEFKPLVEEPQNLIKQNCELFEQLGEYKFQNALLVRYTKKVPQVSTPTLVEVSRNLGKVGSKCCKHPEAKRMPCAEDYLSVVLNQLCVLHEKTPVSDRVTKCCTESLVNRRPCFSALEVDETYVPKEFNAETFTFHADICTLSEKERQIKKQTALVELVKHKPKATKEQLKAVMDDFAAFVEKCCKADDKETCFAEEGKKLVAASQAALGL

As to `CCN1/C(=C/c2sc3ccccc3[n+]2CC)Sc2ccccc21` [MCD 3], the “R0, Förster critical radius” value is ~ 50 Å.
